In US20220389057A1, “ENDOCYTOSIS ROUTING SEQUENCE PEPTIDE FOR CELL DELIVERY SYSTEMS” (SZEGEDI TUDOMÁNYEGYETEM, priority 2019, published 2022) one finds Kd and KD1/nM data, which are given here for 13 compounds.

This assay can be described thus: Isothermal titration calorimetry (ITC), binding to ganglioside GM1. To be noted: Table 1, pH 7.2, 35° C. As to the method:
Isothermal calorimetric titrations (ITC) were performed with a MicroCal VP-ITC microcalorimeter in pH 7.2 phosphate buffer solution. In individual titrations, 15 μL GM1:DPC 1:5 containing solution was injected from the computer-controlled […] microsyringe at intervals of 300 s into the ligand solution, dissolved in the same buffer as the GM1. All measurements were carried out at 35° C. The ligands concentration in the cell was 15 μM, and the concentration of GM1 in the syringe was 300 μM. Control experiments were performed by injecting GM1 into the cell containing buffer but no ligands Experiments were repeated twice. The experimental data were fitted to the one binding site or two independent sites model (adjustable parameters: ΔHb1, Kd1, n1 and ΔHb2, Kd2, n2) using a nonlinear least-squares procedure. Errors were calculated by jackknife resampling.
Binding of Trp-Tyr-Lys-Tyr-Trp (WYKYW) and analogues to various ganglioside derivatives was tested as described under “Isothermal Titration calorimetry” to explore the specificity of the interaction between WYKYW and GM1. Affinity data for binding between WYKYW and various ganglioside derivatives (FIG. 1), and for binding between various mutated sequences of WYKYW and GM1 (Table 1) were obtained by Isothermal Titration calorimetry as described in Example 1 (General methods).
(In general: ITC needs no label: the signal is the heat of the interaction.)

Setting [1] is: first binding step, read-out: KD1/nM.
Where [2] appears, read: second binding step, read-out: KD2/nM.

Like-named read-outs stand apart in the source and are kept apart here.

Turning to `NCCCC[C@H](NC(=O)[C@H](Cc1ccc(O)cc1)NC(=O)[C@@H](N)Cc1c[nH]c2ccccc12)C(=O)N[C@@H](Cc1ccc(O)cc1)C(=O)N[C@H](Cc1c[nH]c2ccccc12)C(N)=O` [WYKYw], under setting [1], the Kd amounted to 3930 nM.

As to `NCCCC[C@H](NC(=O)[C@H](Cc1ccc(O)cc1)NC(=O)[C@@H](N)Cc1c[nH]c2ccccc12)C(=O)N[C@H](Cc1ccc(O)cc1)C(=O)N[C@@H](Cc1c[nH]c2ccccc12)C(N)=O` [WYKyW], the Kd under setting [1] amounted to 3240 nM.

Regarding `NCCCC[C@@H](NC(=O)[C@H](Cc1ccc(O)cc1)NC(=O)[C@@H](N)Cc1c[nH]c2ccccc12)C(=O)N[C@@H](Cc1ccc(O)cc1)C(=O)N[C@@H](Cc1c[nH]c2ccccc12)C(N)=O` [WYkYW], the Kd under setting [1] came to 4520 nM.

As for `NCCCC[C@H](NC(=O)[C@@H](Cc1ccc(O)cc1)NC(=O)[C@@H](N)Cc1c[nH]c2ccccc12)C(=O)N[C@@H](Cc1ccc(O)cc1)C(=O)N[C@@H](Cc1c[nH]c2ccccc12)C(N)=O` [WyKYW], the Kd under setting [1] was found to be 892 nM.

Consider `NCCCC[C@H](NC(=O)[C@H](Cc1ccc(O)cc1)NC(=O)[C@H](N)Cc1c[nH]c2ccccc12)C(=O)N[C@@H](Cc1ccc(O)cc1)C(=O)N[C@@H](Cc1c[nH]c2ccccc12)C(N)=O` [wYKYW], for which the Kd under setting [1] stood at 881 nM.

As for AYKYW [Ala point mutation of WYKYW], the KD1/nM result (first binding step) is given as “not fittable”.

For Trp-Tyr-Lys-β^3-homo-Tyr-Trp [WYKbYW], the Kd was found to be 40 nM under setting [1] and 1200 nM under setting [2].

In the case of Trp-β^3-homo-Tyr-Lys-Tyr-Trp [WbYKYW], the Kd was 60 nM under setting [1] and 1000 nM under setting [2].

Regarding WAKYW [Ala point mutation of WYKYW], the Kd under setting [1] amounted to 5760 nM.

WYAYW [Ala point mutation of WYKYW]: the Kd under setting [1] turned out to be 10500 nM.

Regarding WYKAW [Ala point mutation of WYKYW], the Kd under setting [1] turned out to be 1690 nM.

Turning to WYKYA [Ala point mutation of WYKYW], the Kd under setting [1] amounted to 1060 nM.

For the compound β^3-homo-Trp-Tyr-Lys-Tyr-Trp [bWYKYW], the Kd runs as follows: under setting [1], 4.3 nM; under setting [2], 2100 nM.
